Drawing on US8415486B2, “IAP inhibitors” (TetraLogic Pharmaceuticals Corp., priority 2009, dated 2013), this text covers CC50 and Kd for 17 compounds.

In general, CC50 refers to the concentration at which the toxic effect on the cells reaches its halfway point. Read a high CC50 as lower toxicity to the cells. By Kd is commonly meant the concentration at which binding is half-saturated.

SMILES strings stand for the structures.

The subject of experiment [1] is ovarian cancer cell line, SK-OV-3. In words: SK-OV-3 cell growth inhibition (MTT, 72 hrs). The experiment is classed as cell-based. The following applies: Homo sapiens, concentration giving 50% cell survival, reported as ranges. On the procedure: Compounds of the invention also were tested for their ability to inhibit the growth of an ovarian cancer cell line, SK-OV-3. A known assay previously used for measuring cell growth (as described in Hansen, M. B., Nielsen, S. E., and Berg, K. (1989) J. Immunol. Methods 119, 203-210 and incorporated herein by reference in its entirety) was used. Briefly, SK-OV-3 cells are seeded in 96-well plates in McCoy's medium containing 10% fetal bovine serum albumin (5,000 per well) and incubated overnight at 37° C. The next day, test compounds are added at various concentrations (0.003-10 μM) and the plates are incubated at 37° C. for an additional 72 hrs. This incubation time was considered to be optimal for measuring inhibitory effects of the different compounds tested. 50 microliters of 5 mg/mL MTT reagent is added to each well and the plates are incubated at 37° C. for another three (3) hours. At the end of the three (3) hour incubation period, 50 microliters of DMSO is added to each well to dissolve cells and the optical density (OD) of the wells is measured with a microplate reader (Victor^2 1420, Wallac, Finland) at 535 nm. Cell survival (CS) was calculated using the following equation: CS=(OD treated well/mean OD control wells)×100%.
The CC50 (reported in the following tables), is defined as the drug concentration that results in 50% cell survival (CS), and is derived by calculating the point where the dose-response curve crosses the 50% CS point using GraphPad Prism. The reported CC50 values are supplied as ranges (A=<0.1 μM, B=0.1 μM to 1 μM, C=>1 μM to 10 μM, D=>10 μM).

For the next experiment, the target named is T1, XIAP BIR-3 (Homo sapiens, UniProt P98170).
T1 construct: 40 nM of the respective IAP BIR3
Description: Fluorescence polarization binding to XIAP BIR-3 with labeled peptide AbuRPF-K(5-Fam)-NH2. The following applies: 40 nM BIR3, 5 nM labeled peptide, reported as ranges. As for the experimental part: (§1) The binding affinities of the compounds are reported as a KD value (μM). Briefly, various concentrations of test peptides were mixed with 5 nM of the fluorescently labeled peptide (i.e., a mutated N-terminal Smac peptide—AbuRPF-K(5-Fam)-NH2) and 40 nM of the respective IAP BIR3 for 15 min at RT in […] of 0.1M Potassium Phosphate buffer, pH 7.5 containing 100 mg/ml bovine g-globulin. Following incubation, the polarization values (mP) were measured on a Victor2V (available from PerkinElmer Life Sciences) using a 485 nm excitation filter and a 520 nm emission filter. The reported binding affinities (KD values) are supplied as ranges (A=<0.1 μM, B=0.1 μM to 1 μM, C=>1 μM to 10 μM, D=>10 μM).
On the technique in general: In fluorescence polarisation assays a small probe gives low polarisation when free and higher when bound to something large.

For the next experiment, the target named is T2, cIAP-1 BIR-3 (Homo sapiens, UniProt Q13490).
T2 construct: 40 nM of the respective IAP BIR3
In words: Fluorescence polarization binding to cIAP-1 BIR-3 with labeled peptide AbuRPF-K(5-Fam)-NH2. The settings on record: 40 nM BIR3, 5 nM labeled peptide, reported as ranges, read-out: KD (c-IAP-1 BIR3). On the procedure:
as §1

T2 sequence (Q13490 253-363 limits assumed): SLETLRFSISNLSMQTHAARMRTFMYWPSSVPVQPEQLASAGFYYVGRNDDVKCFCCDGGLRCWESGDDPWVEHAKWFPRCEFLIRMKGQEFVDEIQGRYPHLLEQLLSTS
T1 sequence (P98170 241-356 limits assumed): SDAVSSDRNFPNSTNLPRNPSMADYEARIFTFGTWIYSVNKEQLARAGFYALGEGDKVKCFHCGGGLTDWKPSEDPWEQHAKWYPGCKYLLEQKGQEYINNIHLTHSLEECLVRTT

For the compound `CN[C@@H](C)C(=O)N[C@H](C(=O)N1CC[C@@H]2[C@H]1[C@@H](Oc1ccccc1)CN2C(=O)OC(C)(C)C)C(C)C` [Example 1, 4-[3-Methyl-2-(2-methylamino-propionylamino)-butyryl]-3-phenoxy-hexahydro-pyrrolo[3,2-b]pyrrole-1-carboxylic acid tert-butyl ester], the CC50 in experiment [1] was under 100 nM. The Kd at XIAP BIR-3 is 100 to 1000 nM; on cIAP-1 BIR-3, under 100 nM.
On to `CN[C@@H](C)C(=O)N[C@H](C(=O)N1CC[C@@H]2[C@H]1[C@@H](Oc1ccccc1)CN2C(C)=O)C(C)C` [Example 2, N-[1-(4-Acetyl-6-phenoxy-hexahydro-pyrrolo[3,2-b]pyrrole-1-carbonyl)-2-methyl-propyl]-2-methylamino-propionamide], for which, in experiment [1], the CC50 is under 100 nM. The results for the Kd on XIAP BIR-3 and on cIAP-1 BIR-3 were 1000 to 10000 nM and under 100 nM, respectively.
Compound `CN[C@@H](C)C(=O)N[C@H](C(=O)N1CC[C@@H]2[C@H]1[C@@H](Oc1ccccc1)CN2S(C)(=O)=O)C(C)C` [Example 3, N-[1-(4-Methanesulfonyl-6-phenoxy-hexahydro-pyrrolo[3,2-b]pyrrole-1-carbonyl)-2-methyl-propyl]-2-methylamino-propionamide] came in with a CC50 in experiment [1] of under 100 nM. Moreover, the Kd on XIAP BIR-3 and at cIAP-1 BIR-3 was under 100 nM in each case.
In experiment [1], `CN[C@@H](C)C(=O)N[C@H](C(=O)N1CC[C@H]2NC[C@H](Oc3ccccc3-c3ccccc3)[C@H]21)C1CCCCC1` [Example 4, N-{2-[6-(Biphenyl-2-yloxy)-hexahydro-pyrrolo[3,2-b]pyrrol-1-yl]-1-cyclohexyl-2-oxo-ethyl}-2-methylamino-propionamide] displayed a CC50 of 100 to 1000 nM. Moreover, the results for the Kd on XIAP BIR-3 and at cIAP-1 BIR-3 were 100 to 1000 nM and under 100 nM, respectively.
As for `CN[C@@H](C)C(=O)N[C@H](C(=O)N1CC[C@H]2NC[C@H](Oc3cccc4c3CCCC4)[C@H]21)C1CCCCC1` [Example 5, N-{1-Cyclohexyl-2-oxo-2-[6-(5,6,7,8-tetrahydro-naphthalen-1-yloxy)-hexahydro-pyrrolo[3,2-b]pyrrol-1-yl]-ethyl}-2-methylamino-propionamide], in experiment [1], the CC50 lay within 100 to 1000 nM. Moreover, the values for the dissociation constant (Kd) at XIAP BIR-3 and on cIAP-1 BIR-3 were 100 to 1000 nM and under 100 nM, respectively.
`CN[C@@H](C)C(=O)N[C@H](C(=O)N1CC[C@H]2NC[C@H](Oc3ccc4c(c3)CCCC4)[C@H]21)C1CCCCC1` [Example 6, N-{1-Cyclohexyl-2-oxo-2-[6-(5,6,7,8-tetrahydro-naphthalen-2-yloxy)-hexahydro-pyrrolo[3,2-b]pyrrol-1-yl]-ethyl}-2-methylamino-propionamide] had a CC50 in experiment [1] of under 100 nM. For the same compound, the dissociation constant Kd on XIAP BIR-3 and at cIAP-1 BIR-3 was under 100 nM throughout.
For `CN[C@@H](C)C(=O)N[C@H](C(=O)N1CC[C@H]2NC[C@H](Oc3ccc4ccccc4c3)[C@H]21)C1CCCCC1` [Example 7, N-{1-Cyclohexyl-2-[6-(naphthalen-2-yloxy)-hexahydro-pyrrolo[3,2-b]pyrrol-1-yl]-2-oxo-ethyl}-2-methylamino-propionamide], the 50% cytotoxic concentration (CC50) in experiment [1] was under 100 nM. Moreover, the Kd at XIAP BIR-3 and on cIAP-1 BIR-3 was under 100 nM in each case.
For the compound `CN[C@@H](C)C(=O)N[C@H](C(=O)N1CC[C@H]2NC[C@H](Oc3cccc4ccccc34)[C@H]21)C1CCCCC1` [Example 8, N-{1-Cyclohexyl-2-[6-(naphthalen-1-yloxy)-hexahydro-pyrrolo[3,2-b]pyrrol-1-yl]-2-oxo-ethyl}-2-methylamino-propionamide], in experiment [1], the cytotoxic concentration (CC50) was 100 to 1000 nM. Moreover, the equilibrium dissociation constant (Kd) at XIAP BIR-3 and on cIAP-1 BIR-3 was under 100 nM throughout.
Compound `CN[C@@H](C)C(=O)N[C@H](C(=O)N1CC[C@@H]2[C@H]1[C@@H](Oc1ccc(F)cc1)CN2S(C)(=O)=O)C(C)C` [Example 9, N-{1-[6-(4-Fluoro-phenoxy)-4-methanesulfonyl-hexahydro-pyrrolo[3,2-b]pyrrole-1-carbonyl]-2-methyl-propyl}-2-methylamino-propionamide] came in with a CC50 in experiment [1] of under 100 nM. For the same compound, the Kd on XIAP BIR-3 and at cIAP-1 BIR-3 was under 100 nM each time.
Take `CN[C@@H](C)C(=O)N[C@H](C(=O)N1CC[C@@H]2[C@H]1[C@@H](Oc1ccc(F)cc1)CN2S(C)(=O)=O)C1CCCCC1` [Example 10, N-{1-Cyclohexyl-2-[6-(4-fluoro-phenoxy)-4-methanesulfonyl-hexahydro-pyrrolo[3,2-b]pyrrol-1-yl]-2-oxo-ethyl}-2-methylamino-propionamide]: the CC50 in experiment [1] is under 100 nM. Besides, the Kd on XIAP BIR-3 and at cIAP-1 BIR-3 was under 100 nM throughout.
Take `CN[C@@H](C)C(=O)N[C@H](C(=O)N1CC[C@@H]2[C@H]1[C@@H](Oc1ccc(F)cc1)CN2S(C)(=O)=O)[C@@H](C)OC` [Example 11, N-{1-[6-(4-Fluoro-phenoxy)-4-methanesulfonyl-hexahydro-pyrrolo[3,2-b]pyrrole-1-carbonyl]-2-methoxy-propyl}-2-methylamino-propionamide]: the CC50 in experiment [1] is under 100 nM. Moreover, the Kd on XIAP BIR-3 and on cIAP-1 BIR-3 was under 100 nM in each case.
Take `CN[C@@H](C)C(=O)N[C@H](C(=O)N1CC[C@@H]2[C@H]1[C@@H](Oc1ccc(F)c(F)c1)CN2S(C)(=O)=O)C(C)C` [Example 12, N-{1-[6-(3,4-Difluoro-phenoxy)-4-methanesulfonyl-hexahydro-pyrrolo[3,2-b]pyrrole-1-carbonyl]-2-methyl-propyl}-2-methylamino-propionamide]: the CC50 in experiment [1] was under 100 nM. Also, the Kd on XIAP BIR-3 and at cIAP-1 BIR-3 was under 100 nM throughout.
For `CN[C@@H](C)C(=O)N[C@H](C(=O)N1CC[C@@H]2[C@H]1[C@@H](Oc1ccc(F)c(F)c1)CN2S(C)(=O)=O)C1CCCCC1` [Example 13, N-{1-Cyclohexyl-2-[6-(3,4-difluoro-phenoxy)-4-methanesulfonyl-hexahydro-pyrrolo[3,2-b]pyrrol-1-yl]-2-oxo-ethyl}-2-methylamino-propionamide], in experiment [1], the CC50 was under 100 nM. Besides, the Kd at XIAP BIR-3 and at cIAP-1 BIR-3 was under 100 nM each time.
On to `CN[C@@H](C)C(=O)N[C@H](C(=O)N1CC[C@@H]2[C@H]1[C@@H](Oc1ccc(F)c(F)c1)CN2S(C)(=O)=O)[C@@H](C)OC` [Example 14, N-{1-[6-(3,4-Difluoro-phenoxy)-4-methanesulfonyl-hexahydro-pyrrolo[3,2-b]pyrrole-1-carbonyl]-2-methoxy-propyl}-2-methylamino-propionamide], for which the CC50 in experiment [1] was under 100 nM. Also, the Kd at XIAP BIR-3 and at cIAP-1 BIR-3 was under 100 nM in each case.
In the case of `CN[C@@H](C)C(=O)N[C@H](C(=O)N1CC[C@@H]2[C@H]1[C@@H](Oc1ccc(F)c(F)c1)CN2C1CCOCC1)C(C)(C)C` [Example 15, N-{1-[6-(3,4-Difluoro-phenoxy)-4-(tetrahydro-pyran-4-yl)-hexahydro-pyrrolo[3,2-b]pyrrole-1-carbonyl]-2,2-dimethyl-propyl}-2-methylamino-propionamide], in experiment [1], the CC50 is under 100 nM. The Kd is 100 to 1000 nM on XIAP BIR-3 and under 100 nM on cIAP-1 BIR-3.
Compound `CCN1C[C@H](Oc2ccc(F)c(F)c2)[C@@H]2[C@H]1CCN2C(=O)[C@@H](NC(=O)[C@H](C)NC)C(C)(C)C` [Example 16, N-{1-[6-(3,4-Difluoro-phenoxy)-4-ethyl-hexahydro-pyrrolo[3,2-b]pyrrole-1-carbonyl]-2,2-dimethyl-propyl}-2-methylamino-propionamide] yielded a CC50 in experiment [1] of 100 to 1000 nM. Moreover, the Kd at XIAP BIR-3 and on cIAP-1 BIR-3 was under 100 nM in each case.
In turn, `CN[C@@H](C)C(=O)N[C@H](C(=O)N1CC[C@@H]2[C@H]1[C@@H](Oc1ccc(F)c(F)c1)CN2C1CCCC1)C(C)(C)C` [Example 17, N-{1-[4-Cyclopentyl-6-(3,4-difluoro-phenoxy)-hexahydro-pyrrolo[3,2-b]pyrrole-1-carbonyl]-2,2-dimethyl-propyl}-2-methylamino-propionamide] registered a CC50 in experiment [1] of under 100 nM. The dissociation constant (Kd) at XIAP BIR-3 is 100 to 1000 nM; on cIAP-1 BIR-3, under 100 nM.
